“Also recorded” adds a separate entry of the source. Where two headings read alike, the source gives them in different places.
How the values were obtained:
[1] = target: T1, prostaglandin E2-induced contractions of segments of guinea pig ileum (Cavia porcellus, UniProt A0A286XHJ6); assay: Prostaglandin (PGE) Antagonism Assay in guinea pig ileum; design: key to PGE antagonism in guinea pig ileum, activity: Active: A concentration of test compound was determined to be "active" if it produced a dose ratio significantly greater than that obtained in a series of blank treatments; conditions: for Kb: Schild plot, guinea pig ileum, 37° C., read-out: PGE antagonism in guinea pig ileum (pA2) (converted); for PGE antagonism in guinea pig ileum, activity: initial concentration of test compound
T1 construct: The ileums were then quickly removed from the guinea pigs; from tissue; host or cells: guinea pig ileum segments (male albino guinea pigs)
T1 sequence (A0A286XHJ6 1-405): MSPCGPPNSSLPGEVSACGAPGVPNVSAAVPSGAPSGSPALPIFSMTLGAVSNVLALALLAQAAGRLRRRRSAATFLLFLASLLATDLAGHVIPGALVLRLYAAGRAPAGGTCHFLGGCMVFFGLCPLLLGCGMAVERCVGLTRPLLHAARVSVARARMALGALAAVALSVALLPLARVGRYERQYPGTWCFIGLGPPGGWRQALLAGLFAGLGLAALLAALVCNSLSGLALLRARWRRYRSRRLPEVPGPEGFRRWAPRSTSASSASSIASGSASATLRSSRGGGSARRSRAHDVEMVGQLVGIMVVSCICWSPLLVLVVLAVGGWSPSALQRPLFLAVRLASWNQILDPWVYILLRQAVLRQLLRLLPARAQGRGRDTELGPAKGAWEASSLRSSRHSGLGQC
Protocol: In order to determine the effectiveness of several of the compounds of the present invention ("test compounds") as prostaglandin E2 antagonists,a prostaglandin antagonism assay was conducted, as described below, to determine the ability of these compounds to inhibit prostaglandin E2 -induced contractions of segments of guinea pig ileum.
Male albino guinea pigs weighing 200 to 500 grams were sacrificed by cervical dislocation.
The ileums were then quickly removed from the guinea pigs and placed in a modified Tyrode solution, a solution which is known to those of skill in the art, containing one-half of the usual amount of magnesium ions.
Segments of ileum about 2 cm long were then cut and mounted in a 10-mL tissue bath containing the modified Tyrode solution. The solution was maintained at 37° C. and aerated with a gaseous mixture of 95% oxygen and 5% carbon dioxide.
Submaximal contractions of the ileum segments were then generated by injecting prostaglandin E2 into the bath, and detected isotonically. Data for a control prostaglandin E2 dose response curve plotting concentration of prostaglandin E2 versus number of contractions generated was then obtained by experimentally adjusting the dose of the prostaglandin E2 being injected into the tissue bath, in a manner known by those of skill in the art.
Solutions or suspensions containing an initial amount of a test compound in modified Tyrode solution ("test solutions/suspensions") were then separately substituted for the tissue bath. Each test solution/suspension was then kept in constant contact with the ileum tissue, except for brief periods to drain the bath in preparation for rinsing with fresh test solution/suspension. Different doses of prostaglandin E2 were again injected into the test solutions/suspensions.
A second prostaglandin E2 dose response curve was then generated for PGE2 in the presence of a test compound.
A dose ratio of EC50 doses (that dose of a compound or drug which is necessary to elicit a 50% maximal biological response and, thus, which is necessary to elicit a 50% reduction in the contractions of the guinea pig ileum segments in this assay) was then calculated from the results of each test in a manner known by those of skill in the art. […] Duplicate tests were conducted on each concentration of test compound.
If the initial concentration of a test compound was determined to be "active," then varying concentrations of the test compound were then assayed. As is shown in Table I below, all test compounds analyzed in this assay were determined to be "active" as prostaglandin E2 antagonists at the initial concentration.
The pA2 value (a statistical constant which is a common measure of expressing the potency of a particular drug as a competitive antagonist) was then calculated for each test compound by schild plot calculations, as described by H. O. Schild, "pA, A New Scale for the Measurement of Drug Antagonism," Br. J. Pharmacol, 2, 189 (1947), according to the following mathematical formula: […]
to quantitate the effectiveness of the test compounds as prostaglandin E2 antagonists.
The compounds of the present invention which were tested in this assay, and for which results are presented in Table I, correspond to the particular examples specified in Table I.

mice = assay: Writhing Assay (PBQ-induced writhing, analgesic activity); assay type: in vivo, mouse (Charles River male albino); conditions: for rank order of potency in the Writhing Assay: more potent compounds of the invention
Excerpt: The Writhing Assay is one of the most widely-used experimental procedures for measuring the analgesic activity of different narcotic and nonnarcotic analgesic agents, and involves the continuous, chemically-induced pain of visceral origin to an animal, such as a mouse or rat. [Gyires et al., Arch. int. Pharmacodyn, 267, 131-140 (1984); C. Vander Wende et al., Fed. Proc., 15, 494 (1956); Koster et al., Fed. Proc., 18, 412 (1959); and Witken et al., J. Pharmacol. exp. Ther., 133, 400-408 (1961).] Chemicals which may be used to induce this pain include phenylbenzoquinone (PBQ) and acetic acid. As a result of the chemical irritation to the animal, a characteristic stretching and writhing of the animal (dorsiflexion of the animal's back, extension of its hindlimbs and the strong contraction of its abdominal musculature) will generally occur. […] Drugs which reduce the number of writhes of the animal appear to restore the normal nociceptive threshold of the animal.
Charles River male albino mice, weighing 20 to 30 grams were used in this assay.
Thirty minutes after subcutaneous or intragastric administration to ten mice of either 10 mg or 30 mg per kilogram of body weight of a compound of the present invention ("test compound"), […] of body weight of a 0.025% w/v solution of PBQ was injected intraperitoneally into each mouse. Ten mice which were given saline in place of a test compound of the invention were used as a control group.
Five minutes later, each mouse was individually placed into a glass beaker for observation, and the number of writhes occurring during the following ten-minute period was counted.
A test compound was considered to have produced analgesia in a mouse if, in accordance with the conditions set forth above, and under the test criteria employed for this assay, after the administration of 10 or 30 mg per kilogram of body weight of a compound of the present invention to the mouse, the number of writhes elicited by a mouse injected with PBQ was equal to, or less than, one-half the median number of writhes recorded for the saline-treated control group of mice that day, as described by Taber in "Predictive Value of Analgesic Assays in Mice and Rats," Advances in Biochemical Psychopharmacology, 8, 191 (1974).
The results for the particular compounds of the present invention analyzed in this assay, and discussed in the examples identified below which correspond thereto, are presented in Table I below.
The standard initial screening doses of a test compound employed in this assay were 10 and/or […] of body weight for both routes of administration. If these initial screening doses of the test compound produced analgesia in seven of ten mice, then the effect of additional doses of the test compound on the writhing response was evaluated, and then the ED50 dose was generally calculated. (The slopes of the dose-response curves for all test compounds analyzed were compared as described by Tallarida and Murray, Manual of Pharmacologic Calculations, Page 11 (Springer Verlag, N.Y., 1981)).

[2] = tested on: isolated smooth muscle preparations; conditions: cited from earlier work
[3] = tested on: micturition of urethane-anesthetized rats; conditions: cited from earlier work
[4] = po, mouse, intragastric, read-out: PBQ writhing assay ED50, I.G.
[5] = Mus musculus, po, read-out: PBQ writhing assay ED50, I.G.

| Structure (SMILES) | Kb [1] | PGE antagonism in guinea pig ileum, activity [1] | rank order of potency in the Writhing Assay (mice) | also measured |
| --- | --- | --- | --- | --- |
| O=C(Cc1cccs1)NCCC(=O)NNC(=O)N1Cc2ccccc2Oc2ccc(Cl)cc21 [Example 5, 8-chlorodibenz[b,f][1,4]oxazepine-10(11H)-carboxylic acid, 2-[1-oxo-3-[(2-thienylacetyl)amino]propyl]hydrazide] | 79.4 nM | Active |  | effectiveness as prostaglandin E2 antagonist relative to prostaglandin antagonists reported in the literature ([1]; compared with literature prostaglandin E2 antagonists): more than three to four times more effective |
| CC(C)(C)OC(=O)NCCC(=O)NNC(=O)N1Cc2ccccc2Oc2ccc(Cl)cc21 [Example 7, 8-chlorodibenz[b,f][1,4]oxazepine-10(11H)-carboxylic acid, 2-[3-[[(1,1-dimethylethoxy)carbonyl]amino]-1-oxopropyl]hydrazide] | 2510 nM | Active |  |  |
| O=C(CCNC(=O)Nc1ccc(C(F)(F)F)cc1)NNC(=O)N1Cc2ccccc2Oc2ccc(Cl)cc21 [Example 10, 8-chlorodibenz[b,f][1,4]oxazepine-10(11H)-carboxylic acid, 2-[1-oxo-3-[[[[(4-trifluoromethyl)phenyl]amino]carbonyl]amino]propyl]hydrazide] | 100 nM | Active |  |  |
| CS(=O)(=O)NCCC(=O)NNC(=O)N1Cc2ccccc2Oc2ccc(Cl)cc21 [Example 11, 8-chlorodibenz[b,f][1,4]oxazepine-10(11H)-carboxylic acid, 2-[3-[(methylsulfonyl)amino]-1-oxopropyl]hydrazide] | 794 nM | Active | Example 20>Example 27>Example 12>Example 11>Example 28 | ED50 (mice; [4]): 9.7 mg/kg; ED50 (mice; sc, mouse, subcutaneous, read-out: PBQ writhing assay ED50, S.C.): 3 mg/kg |
| CNC(=O)NCCC(=O)NNC(=O)N1Cc2ccccc2Oc2ccc(Cl)cc21 [Example 12, 8-chlorodibenz[b,f][1,4]oxazepine-10(11H)-carboxylic acid, 2-[3-[[(methylamino)carbonyl]amino]-1-oxopropyl]hydrazide] |  |  | Example 20>Example 27>Example 12>Example 11>Example 28 | ED50 (mice; [4]): 8.4 mg/kg |
| CCOP(=O)(CC(=O)NNC(=O)N1Cc2ccccc2Oc2ccc(Cl)cc21)OCC [Example 20, 8-chlorodibenz[b,f][1,4]oxazepine-10(11H)-carboxylic acid, 2-[(diethoxyphosphinyl)acetyl]hydrazide] | 794 nM | Active | Example 20>Example 27>Example 12>Example 11>Example 28; also recorded: the most potent compound of the invention tested | ED50 (mice; [5]): 8.2 mg/kg; ED50 (mice; Mus musculus, sc, read-out: PBQ writhing assay ED50, S.C.): 7.1 mg/kg |
| O=C(CCNS(=O)(=O)c1ccccc1)NNC(=O)N1Cc2ccccc2Oc2ccc(Cl)cc21 [Example 24, 8-chlorodibenz[b,f][1,4]oxazepine-10(11H)-carboxylic acid, 2-[1-oxo-3-[(phenylsulfonyl)amino]propyl]hydrazide] | 2000 nM | Active |  |  |
| CCOP(=O)(O)CC(=O)NNC(=O)N1Cc2ccccc2Oc2ccc(Cl)cc21 [Example 27, 8-chlorodibenz[b,f][1,4]oxazepine-10(11H)-carboxylic acid, 2-[(ethoxyhydroxyphosphinyl)acetyl]hydrazide] |  |  | Example 20>Example 27>Example 12>Example 11>Example 28 | ED50 (mice; [5]): 8.3 mg/kg |
| O=C(CP(=O)(O)O)NNC(=O)N1Cc2ccccc2Oc2ccc(Cl)cc21 [Example 28, 8-chlorodibenz[b,f][1,4]oxazepine-10(11H)-carboxylic acid, 2-(phosphonoacetyl)hydrazide] |  |  | Example 20>Example 27>Example 12>Example 11>Example 28 | ED50 (mice; [4]): 11.2 mg/kg |
| O=C(Cc1ccccc1)NNC(=O)N1Cc2ccccc2Oc2ccc(Cl)cc21 [SC-18637] |  |  |  | inhibition of stimulant actions of prostaglandins [2]: inhibit the stimulant actions of prostaglandins on isolated smooth muscle preparations |
| CC(=O)NNC(=O)N1Cc2ccccc2Oc2ccc(Cl)cc21 [SC-19220] |  |  |  | inhibition of stimulant actions of prostaglandins [2]: inhibit the stimulant actions of prostaglandins on isolated smooth muscle preparations; bladder capacity [3]: increased the bladder capacity; voiding efficiency of micturition [3]: reduced the voiding efficiency of micturition |
